Where two headings read alike, the source gives them in different places.

For data set [1], the system named is mouse connective tissue fibroblasts (L-929). In words: High-content screen of drug-induced apoptosis, L-929 cells. It is filed as cell-based. Here is the method:
Cell preparation. The cells chosen for this study were mouse connective tissue fibroblasts (L-929; ATCC CCL-1) and a highly invasive glioblastoma cell line (SNB-19; ATCC CRL-2219) (Welch et al., In Vitro Cell. Dev. Biol. 31:610, 1995). The day before treatment with an apoptosis inducing drug, 3500 cells were placed into each well of a 96-well plate and incubated overnight at 37° C. in a humidified 5% CO2 atmosphere. The following day, the culture medium was removed from each well and replaced with fresh medium containing various concentrations of paclitaxel (0–50 μM) from a 20 mM stock made in DMSO. The maximal concentration of DMSO used in these experiments was 0.25%. The cells were then incubated for 26 h as above. At the end of the paclitaxel treatment period, each well received fresh medium containing 750 nM MITOTRACKER® Red (Molecular Probes; Eugene, Oreg.) and 3 μg/ml Hoechst 33342 DNA-binding dye (Molecular Probes) and was incubated as above for 20 min. Each well on the plate was then washed with HBSS and fixed with 3.7% formaldehyde in HBSS for 15 min at room temperature. The formaldehyde was washed out with HBSS and the cells were permeabilized for 90 s with 0.5% (v/v) Triton X-100, washed with HBSS, incubated with 2 U ml^−1 BODIPY® FL phallacidin (Molecular Probes) for 30 min, and washed with HBSS. The wells on the plate were then filled with 200 μl HBSS, sealed, and the plate stored at 4° C. if Go necessary.
(§1) Image acquisition and analysis on the ArrayScan System. The fluorescence intensity of intracellular MITOTRACKER® Red, Hoechst 33342, and BODIPY® FL phallacidin was measured with the cell screening system as described supra. […]
Calculations and output. A total of 50–250 cells were measured per image field. For each field of cells, the following calculations were performed: (1) The average nuclear area (μm^2) was calculated by dividing the total nuclear area in a field by the number of nuclei detected. (2) The average nuclear perimeter (μm) was calculated by dividing the sum of the perimeters of all nuclei in a field by the number of nuclei detected in that field. […] (3) The average nuclear brightness was calculated by dividing the integrated intensity of the entire field of nuclei by the number of nuclei in that field. […] (4) The average cellular brightness was calculated by dividing the integrated intensity of an entire field of cells stained with MITOTRACKER® dye by the number of nuclei in that field. […] (5) The average cellular brightness was also calculated by dividing the integrated intensity of an entire field of cells stained with BODIPY® FL phallacidin dye by the number of nuclei in that field. […]

For data set [2], the system named is glioblastoma cell line (SNB-19). In words: High-content screen of drug-induced apoptosis, SNB-19 cells. The format is cell-based. The conditions noted are these: 26 h. How it is done: Cell preparation. The cells chosen for this study were mouse connective tissue fibroblasts (L-929; ATCC CCL-1) and a highly invasive glioblastoma cell line (SNB-19; ATCC CRL-2219) (Welch et al., In Vitro Cell. Dev. Biol. 31:610, 1995). The day before treatment with an apoptosis inducing drug, 3500 cells were placed into each well of a 96-well plate and incubated overnight at 37° C. in a humidified 5% CO2 atmosphere. The following day, the culture medium was removed from each well and replaced with fresh medium containing various concentrations of paclitaxel (0–50 μM) from a 20 mM stock made in DMSO. The maximal concentration of DMSO used in these experiments was 0.25%. The cells were then incubated for 26 h as above. […]
as §1
Calculations and output. A total of 50–250 cells were measured per image field. For each field of cells, the following calculations were performed: (1) The average nuclear area (μm^2) was calculated by dividing the total nuclear area in a field by the number of nuclei detected. (2) The average nuclear perimeter (μm) was calculated by dividing the sum of the perimeters of all nuclei in a field by the number of nuclei detected in that field. […]

For data set [3], the system named is PC12 cells. Conditions: 3 hours, 8 wells.
The subject of data set [4] is PC12 cells. In words: cells. Conditions: Rattus norvegicus, PC-12, read-out: IC50 (50% inhibitory concentration) for dopamine toxicity to neurites.
Data set [5] has as its system NF-KB transcription factor. In words: NF-KB cytoplasm to nucleus translocation screen (NucCyt Difference). It is filed as cell-based. Conditions: human cell line, wells titrated with IL-1; FIG. 16. How it is done: The distribution of the transcription factor is determined by labeling the nuclei with a DNA specific fluorophore like […] and the transcription factor with a specific fluorescent antibody. After autofocusing on the Hoechst labeled nuclei, an image of the nuclei is acquired in the cell-based screening system and used to create a mask by one of several optional thresholding methods, as described supra. The morphological descriptors of the regions defined by the mask are compared with the user defined parameters and valid nuclear masks are identified and used with the following method to extract transcription factor distributions. Each valid nuclear mask is eroded to define a slightly smaller nuclear region. The original nuclear mask is then dilated in two steps to define a ring shaped region around the nucleus, which represents a cytoplasmic region. The average antibody fluorescence in each of these two regions is determined, and the difference between these averages is defined as the NucCyt Difference. […] Using these two sampling regions, data on nuclear translocation can be automatically analyzed by the cell-based screening system on a cell by cell basis. […]

As for `CC(=O)O[C@H]1C(=O)[C@@]2(C)[C@H]([C@H](OC(=O)c3ccccc3)[C@]3(O)C[C@H](OC(=O)[C@H](O)[C@@H](NC(=O)c4ccccc4)c4ccccc4)C(C)=C1C3(C)C)[C@]1(OC(C)=O)CO[C@@H]1C[C@@H]2O` [paclitaxel], the “Concentration giving maximal response in many parameters” value in data set [1] (L-929 cells, 26 h) worked out at 5 µM. Further, in data set [1] (L-929 cells, all concentrations tested (0–50 μM)), the Mitochondrial potential entry is “did not show a sharp decrease in mitochondrial potential”. Further, the Nuclear morphology entry in data set [1] (L-929 cells, increasing amounts, 26 h, FIG. 24) is “caused nuclei to enlarge and fragment”. In addition, the “Dose for maximal response in L-929 relative to SNB-19 cells” value in data set [1] (L-929 versus SNB-19) came out at 500 fold. In data set [2], the “Concentration at which area, brightness and fragmentation of the nucleus and actin polymerization reached a maximum value” was found to be 10 nM; the “Concentration at which mitochondrial potential was minimal” value turned out to be 10 nM.
For the molecule `NCCc1ccc(O)c(O)c1` [dopamine], the “Neurite Outgrowth Index (mean +/− standard deviation)” value in the data set with PC12 cells [3] (dopamine 0.05 mM) was 43 +/− 4%; with PC12 cells [3] (dopamine 0.1 mM), 37 +/− 3%; in the data set on PC12 cells [3] (dopamine 0.2 mM), 37 +/− 3%; with PC12 cells [3] (dopamine 0.4 mM), 25 +/− 3%; in the data set on PC12 cells [3] (dopamine 0.8 mM), 17 +/− 2%; in the data set with PC12 cells [3] (dopamine 1.6 mM), 11 +/− 2%. For the same molecule, in the data set with PC12 cells [4], the IC50 is 460 µM.

B1: IL-1: a known inducer of the NF-KB transcription factor (protein, UniProt P01583 113-271, looked up)
Interleukin-1 alpha: SAPFSFLSNVKYNFMRIIKYEFILNDALNQSIIRANDQYLTAAALHNLDEAVKFDMGAYKSSKDDAKITVILRISKTQLYVTAQDEDQPVLLKEMPEIPKTITGSETNLLFFWETHGTKNYFTSVAHPNLFIATKQDYWVCLAGGPPSITDFQILENQA
B1: in data set [5], the “NucCyt Difference (NF-KB nuclear translocation) versus amount of agonist” value is “strongly correlated with the amount of agonist added to the wells”.

Values taken from patent publication US6986993B1, “System for cell-based screening” (Cellomics, Inc., priority 1999, dated 2006).
